# Values quoted from earlier work as cited in patent publication US11596166B2 (priority 2017, dated 2023).
# Test system: pellagra patients
# Conditions: in vivo
smiles,measurement,value
O=C(O)c1cccnc1 [nicotinic acid],acute mental symptoms,"disappear rapidly, often over night"
same,symptoms of pellagra,disappearance of many symptoms of the disease
same,time to blanching of acute erythematous dermal lesions with intact epithelium,≤ 48 h
same,"time to cessation of nausea and vomiting, normal bowel movements",24 to 72 h
same,"time to subsidence of redness and swelling of tongue, gums, mouth, throat, and vagina",24 to 72 h
